Consider 15 molecules from patent US9163020B2, “Azaindole compounds, synthesis thereof, and methods of using the same” (Global Alliance for TB Drug Development, priority 2013, dated 2015).

The structures appear in SMILES notation. Converted amounts (≈) assume the structure as drawn.

The subject of this experiment is Mycobacterium tuberculosis (Mtb) H37Rv ATCC 27294. Put plainly: microbe, parasite or virus in culture. The conditions noted are these: Mycobacterium tuberculosis, Table 1; read-out: Mtb MIC. The experiment is classed as cell-based.
Take `CC(c1c(F)cccc1F)n1cc(C(=O)NCCF)c2ncccc21` (stereo not drawn) [Compound 1, 1-(1-(2,6-difluorophenyl)ethyl)-N-(2-fluoroethyl)-1H-pyrrolo[3,2-b]pyridine-3-carboxamide]: the MIC was found to be 12.5 µM (≈ 4.34 µg/mL).

`COc1ccc(F)cc1Cn1cc(C(=O)NCC2CC2)c2nccc(C)c21` [Compound 2, N-(Cyclopropylmethyl)-1-(5-fluoro-2-methoxybenzyl)-7-methyl-1H-pyrrolo[3,2-b]pyridine-3-carboxamide]: the MIC came to 6.25 µM (≈ 2.3 µg/mL).

As for `COc1ccc(F)c(F)c1Cn1cc(C(=O)NCCF)c2ncccc21` [Compound 5, 1-(2,3-difluoro-6-methoxybenzyl)-N-(2-fluoroethyl)-1H-pyrrolo[3,2-b]pyridine-3-carboxamide], the MIC was less than 0.66 µM.

Regarding `COCCNC(=O)c1cn(Cc2cc(F)cnc2OC)c2cccnc12` [Compound 6], the MIC was found to be 1.3 µM (≈ 0.466 µg/mL).

With `COCCNC(=O)c1cn(Cc2ncnc(OC)c2C)c2cccnc12` [Compound 7, 1-((6-methoxy-5-methylpyrimidin-4-yl)methyl)-N-(2-methyl)-1H-pyrrolo[3,2-b]pyridine-3-carboxamide], the MIC was less than 1.33 µM.

With `COc1ncnc(Cn2cc(C(=O)NCCO)c3ncccc32)c1C` [Compound 9, N-(2-hydroxyethyl)-1-((6-methoxy-5-methylpyrimidin-4-yl)methyl)-1H-pyrrolo[3,2-b]pyridine-3-carboxamide], the MIC was found to be 13.9 µM (≈ 4.75 µg/mL).

Regarding `COc1ncnc(Cn2cc(C(=O)NCC3CC3)c3ncc(C)cc32)c1C` [Compound 10, N-(cyclopropylmethyl)-1-((6-methoxy-5-methylpyrimidin-4-yl)methyl)-6-methyl-1H-pyrrolo[3,2-b]pyridine-3-carboxamide], the MIC is 1.56 µM (≈ 0.57 µg/mL).

For the molecule `COCCNC(=O)c1cn(Cc2ncnc(OC)c2C)c2cc(C)cnc12` [Compound 11, 1-((6-methoxy-5-methylpyrimidin-4-yl)methyl)-N-(2-methoxyethyl)-6-methyl-1H-pyrrolo[3,2-b]pyridine-3-carboxamide], the MIC came out at 0.781 µM (≈ 0.289 µg/mL).

Regarding `Cc1c(OCC(F)(F)F)ccnc1Cn1cc(C(=O)NCCF)c2ncccc21` [Compound 12, N-(2-fluoroethyl)-1-((3-methyl-4-(2,2,2-trifluoroethoxy)pyridin-2-yl)methyl)-1H-pyrrolo[3,2-b]pyridine-3-carboxamide], the MIC was 6.25 µM (≈ 2.56 µg/mL).

Consider `COc1ncc(C(F)(F)F)cc1Cn1cc(C(=O)NCCF)c2ncccc21` [Compound 13, N-(2-fluoroethyl)-1-((2-methoxy-5-(trifluoromethyl)pyridin-3-yl)methyl)-1H-pyrrolo[3,2-b]pyridine-3-carboxamide], for which the MIC is less than 0.53 µM.

For the molecule `COc1ncc(C#N)cc1Cn1cc(C(=O)NCCF)c2ncccc21` [Compound 14, 1-((5-cyano-2-methoxypyridin-3-yl)methyl)-N-(2-fluoroethyl)-1H-pyrrolo[3,2-b]pyridine-3-carboxamide], the MIC stood at 3.12 µM (≈ 1.1 µg/mL).

Consider `COc1ncc(F)cc1Cn1cc(C(=O)NCCF)c2ncc(C)cc21` [Compound 15, 1-((5-fluoro-2-methoxypyridin-3-yl)methyl)-N-(2-fluoroethyl)-6-methyl-1H-pyrrolo[3,2-b]pyridine-3-carboxamide], for which the MIC is 1.56 µM (≈ 0.562 µg/mL).

Turning to `COc1ncnc(Cn2cc(C(=O)NC[C@H](C)F)c3ncc(C)cc32)c1C` [Compound 16, (S)—N-(2-fluoropropyl)-1-((6-methoxy-5-methylpyrimidin-4-yl)methyl)-6-methyl-1H-pyrrolo[3,2-b]pyridine-3-carboxamide], the MIC is 0.156 µM (≈ 0.0579 µg/mL).

Take `COc1nc(C)c(F)cc1Cn1cc(C(=O)NCCF)c2ncccc21` [Compound 18, 1-((5-fluoro-2-methoxy-6-methylpyridin-3-yl)methyl)-N-(2-fluoroethyl)-1H-pyrrolo[3,2-b]pyridine-3-carboxamide]: the MIC turned out to be 0.781 µM (≈ 0.281 µg/mL).

Take `COc1ncnc(Cn2cc(C(=O)NCCF)c3ncc(F)cc32)c1C` [Compound 19, 6-fluoro-N-(2-fluoroethyl)-1-((6-methoxy-5-methylpyrimidin-4-yl)methyl)-1H-pyrrolo[3,2-b]pyridine-3-carboxamide]: the MIC is 6.25 µM (≈ 2.26 µg/mL).
